How the values were obtained:
Format in all cases: cell-based
human BG37 [1] = target: T1, human BG37 (Homo sapiens, UniProt Q8TDU6); experiment: Assay of intracellular cAMP level (EIA) in human BG37-expressing cells (HEK/hBG37), steroid hormones; settings: steroid hormone at various concentrations, 37° C. for 15 minutes
T1 construct: Human BG37 gene cut out, utilizing the BamHI-EcoRV site, from pCR2.1-BG37ORF was subcloned into the BamHI-EcoRV digested pKT52 vector; expressed in transfected cells
T1 sequence (Q8TDU6 1-330): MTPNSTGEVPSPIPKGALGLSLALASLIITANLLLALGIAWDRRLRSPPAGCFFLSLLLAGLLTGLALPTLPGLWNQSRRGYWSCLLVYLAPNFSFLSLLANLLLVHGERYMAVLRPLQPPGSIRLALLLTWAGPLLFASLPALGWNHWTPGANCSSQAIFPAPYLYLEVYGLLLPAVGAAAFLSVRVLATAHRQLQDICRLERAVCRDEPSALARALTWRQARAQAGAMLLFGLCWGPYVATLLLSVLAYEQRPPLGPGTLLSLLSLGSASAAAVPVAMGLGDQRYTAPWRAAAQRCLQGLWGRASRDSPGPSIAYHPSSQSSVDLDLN
Description: On the day before the measurement of the intracellular cAMP level, cells were re-plated at a cell density of 4×10^4 cells/well on a poly-D-lysin-coated 96-well plate (Becton Dickinson), and then incubated at 37° C. for another 24 hours.

human BG37 [2] = target: T1, human BG37; experiment: Bile acid-dependent increase of intracellular cAMP level (HTRF) in cells expressing the human BG37; settings: cells expressing the human BG37 (HEK/hBG37); reagent at various concentrations, 37° C. for 20 minutes
Description: The intracellular cAMP level in the presence of a ligand was measured to determine the increase of the intracellular cAMP level through G proteins bound to the seven-transmembrane receptor.
On the day before the measurement of the intracellular cAMP level, cells were re-plated at a cell density of 4×10^4 cells/well on a poly-D-lysin-coated 96-well plate (Becton Dickinson), and then incubated at 37° C. for another 24 hours. Cells of the stable cell line were rinsed twice with 1 mM 3-Isobutyl-1-Methylxanthine (IBMX) (Nacalai Tesque) containing Opti-MEM solution (GIBCO BRL) (Opti-MEM-BSA-IBMX solution), and then incubated at 37° C. for 20 minutes. After removing the supernatant, Opti-MEM-IBMX solution containing a reagent at various concentrations was added thereto. The resulting mixture was incubated at 37° C. for 20 minutes. Then, the cells were lysed with 0.5% Triton X-100 to determine the level of intracellular cAMP.
Measurement of the intracellular cAMP level was carried out using cyclic AMP kit (HTRF) (Nihon Schering) according to the provided manual.

[3] = test system: mock-transfected cells which contained the vector alone; experiment: Intracellular cAMP level (EIA) in mock-transfected cells containing the vector alone (control cells); settings: various concentrations, 37° C. for 15 minutes
Description: Intracellular cAMP levels were determined using the method of Zlokarmik et al. (Science 279, 84 (1998)). The intracellular cAMP level in cells that reacted with the ligand was measured to determine the increase of intracellular cAMP level through G proteins bound to the seven-transmembrane receptor.
On the day before the measurement of the intracellular cAMP level, cells were re-plated at a cell density of 4×10^4 cells/well on a poly-D-lysin-coated 96-well plate (Becton Dickinson), and then incubated at 37° C. for another 24 hours. Cells of the stable cell line were rinsed twice with 0.1% BSA (SIGMA) and 1 mM 3-Isobutyl-1-Methylxanthine containing Opti-MEM solution (GIBCO BRL: Opti-MEM-BSA-IBMX solution) (Nacalai Tesque Inc.: IBMX), and then incubated at 37° C. for 20 minutes. After removing the supernatant, Opti-MEM-BSA-IBMX solution containing at various concentrations a steroid hormone, such as progesterone, was added thereto. The resulting mixture was incubated at 37° C. for 15 minutes. Then, the cells were lysed with Lysis Buffer to measure the level of intracellular cAMP.
The measurement of the intracellular cAMP level was carried out using cyclic AMP enzyme immuno-assay (EIA) system (Amersham Pharmacia Biotech) according to the provided manual.

Row | Compound | intracellular cAMP level (human BG37 [2]) | other results
1 | C[C@]12CCC(=O)C=C1CC[C@@H]1[C@@H]2CC[C@]2(C)C(=O)CC[C@@H]12 [androstenedione] |  | intracellular cAMP level (human BG37 [1]): increased in a concentration-dependent manner
2 | C[C@H](CCC(=O)O)[C@H]1CC[C@H]2[C@@H]3[C@H](O)C[C@@H]4C[C@H](O)CC[C@]4(C)[C@H]3CC[C@]12C [chenodeoxycholic acid] | elevated | 
3 | C[C@H](CCC(=O)O)[C@H]1CC[C@H]2[C@@H]3[C@H](O)C[C@@H]4C[C@H](O)CC[C@]4(C)[C@H]3C[C@H](O)[C@]12C [cholic acid] | elevated | 
4 | CC(=O)[C@H]1CC[C@H]2[C@@H]3CCC4=CC(=O)CC[C@]4(C)[C@H]3CC[C@]12C [progesterone] |  | concentration-dependent increase of intracellular cAMP [3]: not observed

Reference: patent US8076455B2, “Guanosine triphosphate (GTP)-binding protein-coupled receptor protein, BG37” (Merck Sharp & Dohme Corp., priority 2000, dated 2011)
